Test results as given in patent US7202265B2, “Indolinone combinatorial libraries and related products and methods for the treatment of disease” (Sugen, Inc., priority 1997, dated 2007).

Test system: human MET
Assay: MET biochemical kinase assay
Design: concentration or dose not given beside the values
From the text: (d) MET Biochemical Kinase Assay
A met biochemical kinase assay may be performed for met generally as described above for other kinases by substituting that or the other kinases. In particular, ELISA plates are coated with goat anti-rabbit Fc antibodies, which are used to capture commercially available (from Santa Cruz Biotechnology) rabbit polyclonal antibodies to the cytoplasmic domain of human MET. […] The chimeric receptors, or MET, from these lysates are captured on the antibody coated plates. After washing away extraneous proteins, test compounds are added and an in vitro kinase assay is performed by addition of an appropriate kinase buffer (containing ATP, divalent metal ions, etc.). Incorporation of phosphate into the captured receptors is detected with an anti-phosphotyrosine antibody conjugate with horse radish peroxidase using TMB as a substrate for calorimetric detection.

Row | Met Kinase % Inhibition | Structure (SMILES)
1 | −4.9% | CNS(=O)(=O)c1ccc2c(c1)C(=Cc1ccc(O)c(C(C)(C)C)c1)C(=O)N2 [10721/D09]
2 | −10.1% | Cc1cc(C=C2C(=O)Nc3ccc(S(=O)(=O)Nc4ccc(C(F)(F)F)cc4)cc32)cc(C)c1OCc1ccccc1 [10733/E07]
3 | 4.4% | Cc1c(Br)ccc2c1C(=Cc1ccco1)C(=O)N2 [10718/C10]
4 | 86.0% | CC(C)c1ccc2occ(C=C3C(=O)Nc4ccc(I)cc43)c(=O)c2c1 [10731/B05]
5 | 9.6% | O=C1Nc2ccc(S(=O)(=O)Nc3ccc(C(F)(F)F)cc3)cc2C1=Cc1c[nH]cn1 [10725/E11]
6 | 4.1% | COc1c(C)cc(C=C2C(=O)Nc3ccc(Br)c(C)c32)cc1C [10733/C06]
7 | −4.7% | Cc1c(Br)ccc2c1C(=Cc1ccc(O)c(C(C)(C)C)c1)C(=O)N2 [10721/C09]
8 | 93.0% | CNS(=O)(=O)c1ccc2c(c1)C(=Cc1ccc(O)c(O)c1O)C(=O)N2 [10723/D02]
9 | 3.7% | Cc1c(Br)ccc2c1C(=Cc1cc(C(C)(C)C)c(O)c(C(C)(C)C)c1)C(=O)N2 [10721/C11]
10 | 12.0% | CC(C)(C)c1cc(C=C2C(=O)Nc3ccc(CCCl)cc32)cc(Br)c1O [10721/G10]
11 | 1.6% | O=C1Nc2ccc(S(=O)(=O)N3CCOCC3)cc2C1=Cc1ncc[nH]1 [10720/F11]
12 | −18.1% | COc1cc(OC)c(C=C2C(=O)Nc3ccc(CCCl)cc32)c(OC)c1 [10719/G06]
13 | 24.0% | COc1c(C(C)(C)C)cc(C=C2C(=O)Nc3c(Br)cc(Br)cc32)cc1C(C)(C)C [10733/A04]
14 | 4.4% | COc1ccc2[nH]cc(C=C3C(=O)Nc4ccc(CCCl)cc43)c2c1 [10731/G09]
15 | 2.3% | CNS(=O)(=O)c1ccc2c(c1)C(=Cc1ccc(Cl)c([N+](=O)[O-])c1)C(=O)N2 [10718/D08]
16 | 22.0% | CCc1cc(CC)c(C=C2C(=O)Nc3ccc(S(=O)(=O)N4CCOCC4)cc32)[nH]1 [10727/F03]
17 | 1.3% | O=C1Nc2ccc(CCCl)cc2C1=Cc1ccc(F)cc1Cl [10719/G09]
18 | 26.0% | O=C1Nc2ccc(CCCl)cc2C1=Cc1cccc(Oc2ccccc2)c1 [10729/G06]
19 | 6.3% | Cc1c(Br)ccc2c1C(=Cc1sccc1Br)C(=O)N2 [10725/C02]

Row | Met Kinase % Inhibition | Structure (SMILES)
20 | 84.0% | O=C1Nc2ccc(S(=O)(=O)Nc3ccc(C(F)(F)F)cc3)cc2C1=Cc1cc(O)c2c(c1O)CCCC2 [10726/E07]
21 | 4.7% | COC(=O)Cc1c(Cl)[nH]c(C=C2C(=O)Nc3ccc(CCCl)cc32)c1C(=O)OC [10725/G09]
22 | 41.0% | Cc1ccc(C=C2C(=O)Nc3ccc(S(=O)(=O)Nc4ccc(C(F)(F)F)cc4)cc32)s1 [10717/E07]
23 | 55.0% | CCOc1cccc(C=C2C(=O)Nc3ccc(S(=O)(=O)N4CCOCC4)cc32)c1O [10734/F02]
24 | 8.7% | CCn1c2ccccc2c2cc(C=C3C(=O)Nc4ccc(S(=O)(=O)NC)cc43)ccc21 [10731/D02]
25 | 9.9% | CNS(=O)(=O)c1ccc2c(c1)C(=Cc1ccc(O)c(C)c1O)C(=O)N2 [10718/D09]
26 | −6.2% | COc1ccc(C=C2C(=O)Nc3ccc(S(=O)(=O)N4CCOCC4)cc32)c(OC)c1OC [10730/F02]
27 | 16.0% | CNS(=O)(=O)c1ccc2c(c1)C(=Cc1ccc(Br)cc1)C(=O)N2 [10717/D08]
28 | 43.0% | CC(C)(C)c1cc(C=C2C(=O)Nc3ccc(CCCl)cc32)cc([N+](=O)[O-])c1O [10722/G02]
29 | 88.0% | CNS(=O)(=O)c1ccc2c(c1)C(=Cc1ccc(O)c(Br)c1)C(=O)N2 [10734/D09]
30 | 71.0% | O=C1Nc2ccc(CCCl)cc2C1=Cc1ccc([N+](=O)[O-])c(O)c1 [10724/G04]
31 | −2.8% | O=C1Nc2ccc(CCCl)cc2C1=Cc1cccn1-c1ccc(Cl)cc1 [10724/G09]
32 | 0.8% | COc1c(C)cc(C=C2C(=O)Nc3ccc(CCCl)cc32)cc1C [10733/G06]
33 | 8.8% | COc1cccc(OC)c1C=C1C(=O)Nc2ccc(CCCl)cc21 [10728/G03]
34 | 9.0% | CNS(=O)(=O)c1ccc2c(c1)C(=Cc1cc([N+](=O)[O-])cc(CCl)c1O)C(=O)N2 [10721/D06]
35 | 91.0% | O=C1Nc2ccc(I)cc2C1=Cc1cc2c(cc1Cl)OCO2 [10727/B06]
36 | 58.0% | Cc1c(Br)ccc2c1C(=Cc1ccc(Br)o1)C(=O)N2 [10726/C05]
37 | 5.3% | Cc1c(Br)ccc2c1C(=Cc1cccn1-c1ccc(Cl)cc1)C(=O)N2 [10724/C09]
38 | 68.0% | COc1ccc(Br)c(C=C2C(=O)Nc3c(Br)cc(Br)cc32)c1O [10725/A03]

Row | Met Kinase % Inhibition | Structure (SMILES)
39 | 91.0% | Cc1[nH]c(C=C2C(=O)Nc3ccc(I)cc32)c(Br)c1Br [10717/B11]
40 | 7.5% | O=C1Nc2ccc(S(=O)(=O)Nc3ccc(C(F)(F)F)cc3)cc2C1=Cc1ccc(N2CCCC2)cc1 [10729/E10]
41 | 80.0% | CNS(=O)(=O)c1ccc2c(c1)C(=Cc1cc(Br)cc(OC)c1O)C(=O)N2 [10733/D08]
42 | 71.0% | C=C(C)C1CC=C(C=C2C(=O)Nc3ccc(I)cc32)CC1 (centres unmarked) [10731/B04]
43 | 94.0% | O=C1Nc2ccc(CCCl)cc2C1=Cc1cc(Cl)cc(Br)c1O [10727/G04]
44 | 3.9% | COc1c(C(C)C)cc(C=C2C(=O)Nc3ccc(S(=O)(=O)Nc4ccc(C(F)(F)F)cc4)cc32)cc1C(C)C [10732/E03]
45 | 52.0% | CCN(CC)c1ccc(C=C2C(=O)Nc3c(Br)cc(Br)cc32)cc1 [10727/A02]
46 | 9.3% | N#Cc1ccc(C=C2C(=O)Nc3ccc(S(=O)(=O)N4CCOCC4)cc32)cc1 [10727/F09]
47 | 18.0% | O=C1Nc2ccc(S(=O)(=O)Nc3ccc(C(F)(F)F)cc3)cc2C1=Cc1c(F)cc(F)cc1F [10720/E02]
48 | 6.0% | O=C1Nc2ccc(S(=O)(=O)N3CCOCC3)cc2C1=Cc1ccccc1Sc1ccc(Cl)cc1 [10727/F05]
49 | 8.5% | Cc1cc(C=C2C(=O)Nc3ccc(CCCl)cc32)cc(C)c1OCc1ccccc1 [10733/G07]
50 | 8.2% | CC(C)c1cc(C=C2C(=O)Nc3ccc(S(=O)(=O)Nc4ccc(C(F)(F)F)cc4)cc32)cc(C(C)C)c1Oc1ccccc1 [10732/E04]
51 | 2.2% | COc1ccc(C=C2C(=O)Nc3ccc(S(=O)(=O)Nc4ccc(C(F)(F)F)cc4)cc32)cc1C(C)(C)C [10732/E05]
52 | 71.0% | O=C1Nc2ccc(S(=O)(=O)Nc3ccc(C(F)(F)F)cc3)cc2C1=Cc1ccc(Br)o1 [10726/E05]
53 | 17.0% | C=C(C)C1CC=C(C=C2C(=O)Nc3ccc(S(=O)(=O)N4CCOCC4)cc32)CC1 (centres unmarked) [10731/F04]
54 | 4.5% | O=C1Nc2ccc(CCCl)cc2C1=Cc1cccs1 [10717/G03]
55 | 27.0% | COc1ccc2[nH]cc(C=C3C(=O)Nc4ccc(S(=O)(=O)Nc5ccc(C(F)(F)F)cc5)cc43)c2c1 [10731/E09]
56 | −5.4% | COc1cccc(C=C2C(=O)Nc3ccc(S(=O)(=O)Nc4ccc(C(F)(F)F)cc4)cc32)c1OC [10727/E11]
